Reference: patent US6974804B2, “Esters” (Unilever Home & Personal Care USA, division of Conopco, Inc., priority 2000, dated 2005)

How the values were obtained:
Format in all cases: physicochemical
[1] = Light transmission at 580 nm (% T); settings: 580 nm
Method: The translucency of a composition may be measured by placing a sample of standardised thickness in the light path of a spectrophotometer and measuring transmittance, as a percentage of light transmitted in the absence of the gel.
This test was carried out using a dual-beam spectrophotometer. The sample of composition was poured hot into a 4.5 ml cuvette made of poly(methyl-methacrylate) (PMMA) and allowed to cool to an ambient temperature of 20-25° C. Such a cuvette gives a 1 cm thickness of composition. […] A transmittence measured at any temperature in the range from 20-25° C. is usually adequately accurate, but measurement is made at 22° C. if more precision is required.

[2] = Visual assessment score (clarity of gel in 1 cm cuvette); settings: for Clarity Visual (assessment score): scale −12 to 8
Description: A gel contained within a 1 cm thick cuvette was placed directly on to a sheet of white paper on which 21 sets of figures where printed in black. The size and thickness of the figures varied systematically and were numbered from −12 (the largest, thickest set) through 0 to 8 (the smallest thinnest set) The score given to each gel was the highest numbered set which could be read clearly through the gel, the higher the number, the higher the clarity.

[3] = Stability testing of gels: crystal growth visible by eye on storage at 37° C.
Method: Gels were made up using 10% structurant in a 60:40 mixture of Hydrogenated Polyisobutene (Panalene L14E):DC245. The gels, in sealed glass bottles, were left to stand for 18 hrs at room temperature, after which they were transferred to an oven thermostatically controlled to 37° C. Samples were checked periodically for signs of crystal growth visible by eye. REF1 is cellobiose octanonanoate.
Gels were made up and tested in accordance with the procedure in Example 6, as such or modified by employing a weight ratio of 9% of REF1 and 1% of an additional structurant as specified in Table 13 below.
The test procedure of Example 9 was repeated, but using ACB structurant REF2 alone as the structurant or to which a CHME structurant was added.

[4] = Gelling of water-immiscible cosmetic liquids in 96 well glass micro-titre plate; parameters: key: gel; g4: gel after overnight (18 hrs) storage at 4° C.; g22: gel after overnight (18 hrs) storage at 22° C.; sg: soft gel; sg22: soft gel after overnight (18 hrs) storage at 22° C.; solution; *: the test at 4° C. was not carried out; settings: for gelling of ISA: 150° C. 2.5 hours, cooled to ambient
Method: In this Example, various samples of esterified cellobiose prepared as in Example 1 or 2 above, were used to gel water-immiscible cosmetic liquids, in accordance with the procedure given below, in which a large number of gels can be prepared simultaneously.
The samples were tested in a 96 well (8×12 rows) glass micro-titre plate. […] About 0.01 or 0.02 g of each esterified cellobiose material was placed into 8 consecutive wells in a single row, so that each well contained approximately 5% or 10% of the cellobiose ester. The balance in each well comprised the cosmetic liquid by addition of approximately 0.2 g of the respective liquid to each cell. A glass lid was placed on top of the plate. The plate was carefully placed in a thermostatically controlled fan-assisted oven set at 150° C. for 2.5 hours. The plate was removed from the oven and allowed to cool naturally to ambient laboratory temperature. The contents of the wells were assessed at the end of the cooling period, by visual inspection and by poking the contents of each well with a micro-spatula. The plates were stored at […] for 18 hours and the contents inspected, and further stored for 18 hours at 4° C. and inspected for a third time. The results obtained in the tests are summarised in Table 5 below, in which the legend is as follows: […]

[5] = 9% REF4 plus 1% of the named material
[6] = 9% REF4 plus 1% of the named material in 60:40 hydrogenated polydecene:DC245
[7] = 9% REF2 and 1% of the specified ester in 60:40 hydrogenated polydecene:DC245
[8] = Ex 2.6:REF 4 at stated weight ratio, total 10% in 60:40 w/w Silkflo 364NF:DC245

CCCCCCCCCC(=O)OCC1OC(OC2C(COC(=O)CCCCCCCCC)OC(OC(=O)c3ccccc3)C(OC(=O)CCCCCCCCC)C2OC(=O)CCCCCCCCC)C(OC(=O)CCCCCCCCC)C(OC(=O)CCCCCCCCC)C1OC(=O)CCCCCCCCC (mixture of isomers) [Ex 2.6]
Clarity % T [1, 5]: 4.5% | Clarity Visual (appearance) [2, 6]: translucent | Clarity Visual (assessment score) [2, 5]: −8

CCCCCCCCC(=O)OC[C@H]1O[C@@H](O[C@H]2[C@H](OC(=O)CCCCCCCC)[C@@H](OC(=O)CCCCCCCC)C(OC(=O)CCCCCCCC)O[C@@H]2COC(=O)CCCCCCCC)[C@H](OC(=O)CCCCCCCC)[C@@H](OC(=O)CCCCCCCC)[C@@H]1OC(=O)CCCCCCCC (stereo partly drawn) [REF 1, cellobiose octanonanoate]
Observation ([3]; 10% structurant in 60:40 Hydrogenated Polyisobutene (Panalene L14E):DC245, after 18 hrs at RT): Small crystals visible in gel after | Observation ([3]; 10% structurant in 60:40 Hydrogenated Polyisobutene (Panalene L14E):DC245, after 18 hrs at RT, listed as REF1): Small crystals visible in gel after 18 | Observation ([3]; 10% structurant in 60:40 Panalene L14E:DC245, after 6 hrs at 37° C.): More and bigger crystals after 6 hrs | Observation ([3]; 10% structurant in 60:40 Panalene L14E:DC245, after 6 hrs at 37° C., listed as REF1): More and bigger crystals after 6 hrs at | Observation ([3]; 10% structurant in 60:40 Panalene L14E:DC245, after 3 days at 37° C.): Crystals throughout gel after 3 days | Observation ([3]; 10% structurant in 60:40 Panalene L14E:DC245, after 3 days at 37° C., listed as REF1): 37° C.; Crystals throughout gel after 3 days

CCCCCCCCC(=O)OCC1OC(O)C(OC(=O)CCCCCCCC)C(OC(=O)CCCCCCCC)C1OC1OC(COC(=O)CCCCCCCC)C(OC(=O)CCCCCCCC)C(OC(=O)CCCCCCCC)C1OC(=O)CCCCCCCC (mixture of isomers) [REF 5, reference compound]
Clarity % T [1, 7]: 31% | Clarity Visual (assessment score) [2, 7]: translucent 4 | Clarity Visual (appearance) ([2]; 60:40 hydrogenated polydecene:DC245 gelled with 9% REF2 and 1% of the specified cellobiose ester): transparent/

CCCCCCCCCC(=O)OCC1OC(OC2C(COC(=O)CCCCCCCCC)OC(OC(=O)CCCCCCCCC)C(OC(=O)CCCCCCCCC)C2OC(=O)CCCCCCCCC)C(OC(=O)CCCCCCCCC)C(OC(=O)CCCCCCCCC)C1OC(=O)CCCCCCCCC (mixture of isomers) [REF 4, reference compound]
Clarity % T [1, 5]: 0.36% | Clarity % T [1, 8]: 0.36% | Clarity Visual (appearance) [2, 6]: opaque | Clarity Visual (assessment score) [2, 5]: < −12 | Clarity Visual Score [2, 8]: <−12

CCCCCCCCC(=O)OCC1OC(OC2C(COC(=O)CCCCCCCC)OC(OC(=O)C3CCCCC3)C(OC(=O)CCCCCCCC)C2OC(=O)CCCCCCCC)C(OC(=O)CCCCCCCC)C(OC(=O)CCCCCCCC)C1OC(=O)CCCCCCCC (mixture of isomers) [Ex 3.3, cellobiose heptanonanoate monocyclohexanoate]
% T ([1]; gel in 60:40 w/w Silkflo 364:DC245): 53% | Visual ([2]; gel in 60:40 w/w Silkflo 364:DC245, score scale −12 to 8): >8

CCCCCCCCCC(=O)OCC1OC(O)C(OC(=O)CCCCCCCCC)C(OC(=O)CCCCCCCCC)C1OC1OC(COC(=O)CCCCCCCCC)C(OC(=O)CCCCCCCCC)C(OC(=O)CCCCCCCCC)C1OC(=O)CCCCCCCCC (mixture of isomers) [REF 6, reference compound]
Clarity % T [1, 5]: 0.8% | Clarity Visual (appearance) [2, 6]: opaque | Clarity Visual (assessment score) [2, 5]: < −12

CCCCCCCCCCCCCCCC(=O)OC1OC(COC(=O)CCCCCCCC)C(OC2OC(COC(=O)CCCCCCCC)C(OC(=O)CCCCCCCC)C(OC(=O)CCCCCCCC)C2OC(=O)CCCCCCCC)C(OC(=O)CCCCCCCC)C1OC(=O)CCCCCCCC (mixture of isomers) [Ex 1.8]
gelling of DC556 ([4]; 5% cellobiose ester in DC556): gel | gelling of Fluid AP ([4]; 5% cellobiose ester in Fluid AP): gel | gelling of ISA ([4]; 5% cellobiose ester in ISA): g22 | gelling of Mineral oil ([4]; 5% cellobiose ester in Mineral oil): g22 | gelling of Polydecene ([4]; 5% cellobiose ester in Polydecene): gel | gelling of DC556 ([4]; 10% cellobiose ester in DC556): gel | gelling of Fluid AP ([4]; 10% cellobiose ester in Fluid AP): gel | gelling of ISA ([4]; 10% cellobiose ester in ISA): g22 | gelling of Mineral oil ([4]; 10% cellobiose ester in Mineral oil): g22 | gelling of Polydecene ([4]; 10% cellobiose ester in Polydecene): gel | Observations ([3]; 9% of REF1 and 1% of additional structurant, after 15 days at 37° C.): No crystals after 15 days at 37 °C
